Data reported in patent US8324346B2, “Bioactive keratin peptides” (Keraplast Technologies, Ltd., priority 2002, dated 2012).

What was measured:
keratinocytes = test: Mitogenic effects of crude peptide compositions on keratinocytes (OD 530 nm); format: cell-based, human; conditions: 5 days of exposure, positive control
human dermal fibroblasts = test: Biological effect of peptide compositions on human dermal fibroblasts (cell proliferation); format: cell-based; conditions: for increase in cell proliferation: human dermal fibroblasts, positive control
Procedure: A second set of studies was performed that tested the biological effect of the peptide compositions on human dermal fibroblasts after three and five days of exposure. After three days of exposure, the peptide composition produced a greater than 25% increase in cell proliferation at concentrations between 0.5 and 10 ug/ml. The positive control, […] fibroblast growth factor (bFGF25), produced a greater than 30% increase in cell proliferation. After five days of exposure, peptide compositions at a concentration of 0.5 to 10 ug/ml produced increases in cell proliferation of between 9% and 12%. The positive control produced a greater than 13% increase.
Related in vitro tests confirmed that the mitogenic effect of the peptide compositions on dermal fibroblasts increased with concentration up to nearly 150% of the negative control at 1000 ug/ml concentration. Compositions with greater purity increased the mitogenic effect to over 1000% of the negative control. The positive control in these studies, platelet derived growth factor (PDGF), increased the mitogenic effect to nearly 700% of the negative control.

[1] = test system: Normal human adult dermal fibroblasts; test: Cell Titer96 Cell Proliferation Assay: mitogenic effects of synthesized peptides on human fibroblasts in culture for 5 days; format: cell-based; conditions: normalized to baseline controls
Procedure: Normal human adult dermal fibroblasts were cultured in fibroblast growth medium (Clonetics™/BioWhittaker, San Diego, Calif., USA). Passage 5 cells were seeded into wells of 96 well plates at 5×10^3 cells/well. Test peptide solutions were prepared at approximately 1.5 mg/ml in sterile water. Small volumes of 0.1N NH4OH were added dropwise to peptide the peptide solutions to completely solubilize the peptides as recommended by the manufacturer (New England Peptide, Inc., Fitchburg, Miss., USA). The volume of NH4OH added to the solution was recorded and used to adjust beginning concentration. Solutions were serially diluted in fibroblast culture medium from 100-0.001 μg/ml, then added to the cells and cultured for 5 days. At day 3, test and control media were removed from each well by vacuum and replaced with fresh test or control solutions. Samples were evaluated in 4 replicate wells. Note in each plate, wells were selected at random to be used as baseline controls to account for any variation in cell seeding between plates. After 5 days, cell proliferation was assessed spectrophotometrically using the Cell Titer96® Cell Proliferation Assay (Promega Corp., Madison, Wis., USA). Absorbance values were normalized to baseline controls and expressed as percent increased (positive values) or decreased (negative values) proliferation.

Substance | increase in keratinocyte proliferation (keratinocytes) | mitogenic effect, % of the negative control (human dermal fibroblasts; dermal fibroblasts, concentration not given) [%] | percent increased (positive values) or decreased (negative values) proliferation, concentration 0.001 ug/mL [1] [%] | percent increased (positive values) or decreased (negative values) proliferation, concentration 0.01 ug/mL [1] [%] | percent increased (positive values) or decreased (negative values) proliferation, concentration 0.1 ug/mL [1] [%] | percent increased (positive values) or decreased (negative values) proliferation, concentration 1 ug/mL [1] [%] | percent increased (positive values) or decreased (negative values) proliferation, concentration 10 ug/mL [1] [%] | percent increased (positive values) or decreased (negative values) proliferation, concentration 100 ug/mL [1] [%] | increase in cell proliferation (human dermal fibroblasts; five days of exposure) | increase in cell proliferation (human dermal fibroblasts; three days of exposure)
EGF25: epidermal growth factor (EGF25), positive control in the keratinocyte studies | greater than 25% | – | – | – | – | – | – | – | – | –
PDGF | – | ~700 | – | – | – | – | – | – | – | –
VDTAPT (Consensus peptide) [H2N-VDTAPT-OH] | – | – | 9.0 | 4.2 | 6.8 | 2.5 | −0.1 | 4.4 | – | –
VDTAPTV (Consensus peptide) [H2N-VDTAPTV-OH] | – | – | 10.4 | 7.9 | 1.2 | 0.7 | 5.5 | −5.5 | – | –
VEVDAA (Consensus peptide) [H2N-VEVDAA-OH] | – | – | 11.0 | 2.3 | −9.0 | −4.7 | −1.3 | −9.5 | – | –
bFGF25: bovine-derived fibroblast growth factor (bFGF25), positive control | – | – | – | – | – | – | – | – | greater than 13% | greater than 30%
